Test [1] relates to MDA-MB231 (human breast cancer) tumors. The test can be described thus: Fraction of necrosis after calcium electroporation, MDA-MB231 tumors. The test is classed as in vivo, NMRI-Foxn1^nu mice. The protocol: (§1) LPB, a murine sarcoma cell line, B16, a murine malignant melanoma cell line, MDA-MB231, human a breast cancer cell line, HT29, a human colon cancer cell line, and SW780, a human bladder cancer cell line were used for the in vivo experiment. The cells were tested by rapid MAP27 panel (Taconic, Hudson N.Y.) before use without signs of infection. 2×10^5 cells (B16), 8×10^5 cells (LPB), 2.5×10^6 cells (MDA-MB231), and 5×10^6 cells (HT29 and SW780) in 100 μl PBS were injected subcutaneously in the flank of NMRI-Foxn1^nu mice (Harlan, Indianapolis, Ind.) that were 9-11 weeks old. Mice were randomised at a tumor volume above 85 mm^3 and tumors were treated with injection of isotonic calcium-chloride solution (168 mM CaCI2) and electroporation (8 pulses of 1.0 kv/cm for 100 μs and a frequency of 1 Hz) using a 6 mm plate electrode and a square wave electroporator (CLINIPORATOR®, IGEA, Modena, Italy). Tumor volume was calculated as ab^2n/6, where a is the largest diameter and b is the largest diameter perpendicular to a. The injected volume was half of the tumor volume. […] The fraction of necrosis within the tumor was estimated from HE-sections by stereological point counting using a light microscope, evaluated by a pathologist, blinded with respect to treatment status.
(§2) The difference in fraction of necrosis at different time after treatment was assessed using student's t-test.

The test system is the same in test [2]. The test can be described thus: Fraction of tumor necrosis at different calcium concentrations and injection volumes. It is filed as in vivo, NMRI-Foxn1nu mice. The note with it: electroporation, 7 days. As for the experimental part: MDA-MB231, a human breast cancer cell line was used for the in vivo experiments. The cells were tested by rapid MAP27 panel (Taconic, Hudson N.Y.) before use without signs of infection. Cells were maintained in vitro as described in Example 1. 2.5×10^6 cells/100 μl PBS were injected subcutaneously in the flank of NMRI-Foxn1nu mice (Harlan, Indianapolis, Ind.). Tumor pieces are transplanted twice from donor mice to the flank of nude mice that were 13-19 weeks old. HYPNORM™-DORMICUM™ (fentanyl/fluanisone/midazolam; VetaPharma, Leeds, U K and Roche, Basel, Switzerland) was used for anesthesia complemented with RIMADYL® (Carprofen) (Pfizer ApS, Ballerup, Denmark) as well as lidocaine (Region Hovedstadens Apotek, Herlev, Denmark) in the incision. Mice were randomised at a tumor volume above 85 mm3 and tumors were treated with 1) injection of calcium-chloride solution and electroporation (8 pulses of 1.0 kV/cm for 100 μs and a frequency of 1 Hz) using a 6 mm plate electrode and a square wave electroporator (CLINIPORATOR®, IGEA, Modena, Italy), 2) calcium-free physiological saline injection and electroporation (same parameters as above), 3) injection of calcium-chloride, 4) calcium-free physiological saline injection, or 5) untreated but with needle inserted in the tumor without injection and with electrodes put on the tumor without pulses applied. […] Tumor volume was calculated as ab2n/6, where a is the largest diameter and b is the largest diameter perpendicular to a. The solutions were injected through the side of the firm tumor and the needle was moved around inside the tumor to secure injection all over the tumor. Tumors were removed 7 days after treatment, fixated in formalin (10% neutrally buffered) and paraffin embedded. Subsequently, tissue sections with a thickness of 3 μm were HE-stained according to the routine procedure of the department. The fraction of necrosis within the tumor was estimated from HE-sections using a light microscope, evaluated by a pathologist, blinded with respect to treatment status.

Test [3] deals with B16 (murine melanoma) tumors. The test can be described thus: Fraction of necrosis after calcium electroporation, B16 tumors. It is filed as in vivo, NMRI-Foxn1^nu mice. Conditions: 168 mM CaCl2, half tumor volume, first days after treatment. As for the experimental part: as §1, §2
The subject of the next test is tumor on the heel joint. The test can be described thus: Case study, calcium electroporation of canine tumor. It is filed as in vivo, dog. The note with it: 168 mM calcium chloride, 50% of tumor volume, 11 days after treatment. As for the experimental part:
A seven year old Danish Pointer dog with a tumor on the heel joint was treated with calcium electroporation. The tumor was injected with 168 mM calcium chloride solution in a total volume equivalent to 50% of the tumor volume calculated as ab^2n/6, where “a” is the largest diameter of the tumor and “b” is the largest diameter perpendicular to “a”. The calcium chloride solution was injected throughout the tumor to secure an even distribution of calcium in the tumor. After the calcium injection the tumor was electroporated (8 pulses of […] at 1.0 kV/cm and 1 Hz) using a needle electrode and a square wave electroporator (CLINIPORATOR®, IGEA, Modena, Italy). The tumor was photographed before and after the treatment.

In test [4] the test system is N32 (rat brain glioma) tumors. The test can be described thus: Calcium electroporation of brain tumor, MRI and H&E. The test is classed as in vivo, Sprague Dawley rats. The protocol:
N32, a rat brain glioma derived tumor cell line, and 7-11 weeks old Sprague Dawley male rats (Taconic, Hudson N.Y.) were used for the in vivo experiments. The cells were tested by rapid MAP27 panel (Taconic, Hudson N.Y.) before use without signs of infection. Inoculation of 3,000 N32 cells in 5 μl at the stereotaxic coordinates; X=2, Y=1, Z=−4 was performed and verification of tumor by MRI prior to treatment was performed two weeks after inoculation. HYPNORM™-DORMICUM™ (fentanyl/fluanisone/midazolam; VetaPharma, Leeds, U K and Roche, Basel, Switzerland) was used for anesthesia complemented with RIMADYL® (Carprofen) (Pfizer ApS, Ballerup, Denmark) for pain relief after surgery. Tumors were treated two weeks after inoculation with 1) injection of 14 μl calcium-chloride solution (168 mM) and electroporation (32 pulses of 100V for 100 μs and a frequency of 1 Hz) using an 8-electrode device developed for treatment of brain tumors, a square wave electroporator (CLINIPORATOR®, IGEA, Modena, Italy), and a switch box (Sonion), or 2) injection of 14 μl calcium-chloride solution (168 mM) and placement of electrodes but no pulses applied. MRI was performed at day 1, 3, 6, and 8 after treatment. […] The extend of necrosis, the presence of macrophages and the influence on neurons and glia cells were evaluated by H&E, PAS, NF, and GFAP staining, respectively.

Molecules are shown by their SMILES.

For `[Ca+2].[Cl-].[Cl-]` [calcium chloride], the “fraction of necrosis in tumors, course” value in test [1] (168 mM CaCl2, half tumor volume, electroporation, first days after treatment) was “progressive necrosis”; in test [3], “progressive necrosis”. Moreover, in test [1] (6 days after the treatment), the tumor re-growth entry is reported as “re-growth”. The “fraction of necrosis in tumors” value in test [2] (100 mM to 500 mM calcium, constant injection volume 50% of tumor volume) is reported as “higher than the fraction of necrosis in untreated tumors”; in test [2] (injection volumes 20% to 80% of tumor volume, constant 168 mM calcium) it was “higher than the fraction of necrosis in untreated tumors”. In addition, the “injection volume with highest fraction of necrosis” value in test [2] (168 mM calcium) is given as 40 % of the tumor volume. In addition, in the test on tumor on the heel joint, the necrosis of tumor result is given as “clinical signs of necrosis”. Besides, the “tumor size (photos)” value in the test with tumor on the heel joint was “reduced in size”. Moreover, the “tumor size (MRI, H&E)” value in test [4] (14 μl 168 mM calcium alone, no pulses, 6 days after the treatment) is “no effect on tumor size”. The “tumor (MRI, H&E)” value in test [4] (14 μl 168 mM calcium chloride with electroporation (32 pulses 100V), 8 days after the treatment) is reported as “eliminated”.

(Values after US9943599B2, “Therapeutic applications of calcium electroporation to effectively induce tumor necrosis” (Herlev Hospital, priority 2011, dated 2018).)
